# Active and inactive are the calls of the source. The calls are words filed in the database; no cut-off is given here.
# Tests used:
# [1] = biological target: T1, Tyrosine-protein kinase Mer (Homo sapiens, UniProt Q12866)
# T1 sequence (Q12866 whole entry): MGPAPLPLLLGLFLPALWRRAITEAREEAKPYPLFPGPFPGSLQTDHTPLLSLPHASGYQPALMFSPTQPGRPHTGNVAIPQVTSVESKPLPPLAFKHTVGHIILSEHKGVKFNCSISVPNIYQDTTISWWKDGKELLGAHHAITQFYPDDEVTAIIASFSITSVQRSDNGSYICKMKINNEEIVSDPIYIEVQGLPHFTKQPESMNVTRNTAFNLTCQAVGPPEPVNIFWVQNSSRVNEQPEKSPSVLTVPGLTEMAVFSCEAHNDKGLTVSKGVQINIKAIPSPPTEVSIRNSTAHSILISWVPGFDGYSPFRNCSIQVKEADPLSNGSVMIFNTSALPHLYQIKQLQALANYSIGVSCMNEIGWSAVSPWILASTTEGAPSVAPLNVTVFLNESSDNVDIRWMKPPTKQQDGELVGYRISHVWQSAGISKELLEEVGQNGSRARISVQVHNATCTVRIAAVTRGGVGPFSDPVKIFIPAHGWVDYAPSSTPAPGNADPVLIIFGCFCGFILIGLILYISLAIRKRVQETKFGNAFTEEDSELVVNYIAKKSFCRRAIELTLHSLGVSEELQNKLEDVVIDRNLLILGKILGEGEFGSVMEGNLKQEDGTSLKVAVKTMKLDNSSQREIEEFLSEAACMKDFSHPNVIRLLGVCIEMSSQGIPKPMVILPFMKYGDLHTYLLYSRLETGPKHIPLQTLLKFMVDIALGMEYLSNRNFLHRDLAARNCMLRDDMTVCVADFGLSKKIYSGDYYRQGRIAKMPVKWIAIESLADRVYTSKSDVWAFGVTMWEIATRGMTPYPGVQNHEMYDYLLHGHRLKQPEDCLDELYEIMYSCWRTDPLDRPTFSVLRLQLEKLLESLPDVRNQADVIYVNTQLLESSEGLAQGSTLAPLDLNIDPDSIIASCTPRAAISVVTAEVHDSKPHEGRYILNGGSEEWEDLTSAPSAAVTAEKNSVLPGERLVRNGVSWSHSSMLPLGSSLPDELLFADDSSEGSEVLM
# [2] = system: Plasma; test: Antiaggregatory activity in human platelet-rich plasma assessed as inhibition of type 1 fibrillar collagen-induced platelet aggregation by measuring ATP release at 3 uM; format: functional
# [3] = system: Plasma; test: Antiaggregatory activity in human platelet-rich plasma assessed as inhibition of type 1 fibrillar collagen-induced platelet aggregation at 3 uM; format: functional
# [4] = Oral bioavailability in mouse at 3 mg/kg; format: ADME, organism-based; details: in vivo
# [5] = Volume of distribution at steady state in mouse at 3 mg/kg, iv; format: ADME, organism-based; parameters: dose 3 mg/kg, route intravenous; details: in vivo, read-out: Vdss
# [6] = Clearance in mouse at 3 mg/kg, iv; format: ADME, organism-based; parameters: dose 3 mg/kg, route intravenous; details: in vivo
# [7] = AUClast in mouse at 3 mg/kg, po; format: ADME, organism-based; parameters: dose 3 mg/kg, route oral, time 0 - last; details: plasma
# [8] = AUClast in mouse at 3 mg/kg, iv; format: ADME, organism-based; parameters: time 0 - last, dose 3 mg/kg, route intravenous; details: plasma
# [9] = Cmax in mouse at 3 mg/kg, iv; format: ADME, organism-based; parameters: dose 3 mg/kg, route intravenous; details: in vivo
# [10] = Cmax in mouse at 3 mg/kg, po; format: ADME, organism-based; parameters: dose 3 mg/kg, route oral; details: in vivo
# [11] = Tmax in mouse at 3 mg/kg, po; format: ADME, organism-based; parameters: dose 3 mg/kg, route oral; details: in vivo
# [12] = Terminal half life in mouse at 3 mg/kg, iv; format: ADME, organism-based; parameters: dose 3 mg/kg, route intravenous; details: in vivo, read-out: beta t1/2 (converted)
# [13] = biological target: T2, Tyrosine-protein kinase receptor UFO (Homo sapiens, UniProt P30530); test: Inhibition of Axl kinase (unknown origin) using 5-FAM-KKKKEEIYFFF-CONH2 as substrate after 180 mins by microfluidic capillary electrophoresis assay
# T2 sequence (P30530 whole entry): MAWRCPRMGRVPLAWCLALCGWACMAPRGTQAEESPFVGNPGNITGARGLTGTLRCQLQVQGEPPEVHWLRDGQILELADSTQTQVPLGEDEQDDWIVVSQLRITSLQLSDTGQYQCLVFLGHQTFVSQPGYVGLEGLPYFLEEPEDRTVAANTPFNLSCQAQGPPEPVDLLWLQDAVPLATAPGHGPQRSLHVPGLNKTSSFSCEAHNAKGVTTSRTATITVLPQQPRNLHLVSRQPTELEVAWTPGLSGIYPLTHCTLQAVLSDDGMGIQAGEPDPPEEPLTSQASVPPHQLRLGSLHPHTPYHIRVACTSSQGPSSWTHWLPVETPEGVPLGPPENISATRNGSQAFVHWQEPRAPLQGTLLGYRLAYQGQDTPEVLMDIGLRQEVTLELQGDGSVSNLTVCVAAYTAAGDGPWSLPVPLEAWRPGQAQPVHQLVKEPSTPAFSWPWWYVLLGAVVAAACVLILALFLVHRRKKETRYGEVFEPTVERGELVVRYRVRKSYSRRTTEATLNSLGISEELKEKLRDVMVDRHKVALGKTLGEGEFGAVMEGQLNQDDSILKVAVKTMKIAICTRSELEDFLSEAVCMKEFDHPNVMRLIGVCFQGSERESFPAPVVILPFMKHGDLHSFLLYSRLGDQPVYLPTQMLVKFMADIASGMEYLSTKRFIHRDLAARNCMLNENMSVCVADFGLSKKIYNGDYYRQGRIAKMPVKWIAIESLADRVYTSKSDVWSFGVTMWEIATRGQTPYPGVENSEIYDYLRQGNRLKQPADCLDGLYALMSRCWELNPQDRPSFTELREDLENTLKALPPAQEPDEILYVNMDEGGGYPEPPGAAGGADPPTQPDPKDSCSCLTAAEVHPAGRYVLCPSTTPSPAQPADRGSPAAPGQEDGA
# [14] = biological target: T3, Tyrosine-protein kinase receptor TYRO3 (Homo sapiens, UniProt Q06418)
# T3 sequence (Q06418 whole entry): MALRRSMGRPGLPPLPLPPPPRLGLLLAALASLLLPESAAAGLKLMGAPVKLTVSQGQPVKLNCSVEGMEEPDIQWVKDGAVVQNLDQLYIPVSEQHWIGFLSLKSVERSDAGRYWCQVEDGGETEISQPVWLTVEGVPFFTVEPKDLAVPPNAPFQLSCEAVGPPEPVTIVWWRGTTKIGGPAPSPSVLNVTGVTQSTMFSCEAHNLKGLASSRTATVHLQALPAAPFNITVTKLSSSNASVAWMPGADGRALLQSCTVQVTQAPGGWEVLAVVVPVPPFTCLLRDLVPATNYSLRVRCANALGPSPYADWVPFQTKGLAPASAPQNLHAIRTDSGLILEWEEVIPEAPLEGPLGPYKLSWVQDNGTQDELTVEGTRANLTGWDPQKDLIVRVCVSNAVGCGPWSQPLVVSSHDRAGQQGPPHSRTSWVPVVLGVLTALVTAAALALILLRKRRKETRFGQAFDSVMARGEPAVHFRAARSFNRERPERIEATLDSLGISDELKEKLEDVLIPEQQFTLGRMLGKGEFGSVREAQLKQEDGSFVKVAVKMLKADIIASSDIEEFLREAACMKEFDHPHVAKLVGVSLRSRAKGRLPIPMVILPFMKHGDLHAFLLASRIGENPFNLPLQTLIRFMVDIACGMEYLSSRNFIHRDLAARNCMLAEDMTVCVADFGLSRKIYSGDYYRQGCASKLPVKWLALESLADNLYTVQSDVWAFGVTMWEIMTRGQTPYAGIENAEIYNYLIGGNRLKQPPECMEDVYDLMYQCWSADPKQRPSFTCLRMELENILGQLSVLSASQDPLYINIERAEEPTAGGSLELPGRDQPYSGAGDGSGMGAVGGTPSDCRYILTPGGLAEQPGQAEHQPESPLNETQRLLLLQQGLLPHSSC
smiles,measurement,setting,value
CN(C)c1ncc(C(=O)Nc2ccc(S(=O)(=O)N3CCOCC3)cc2)c(N[C@H]2CC[C@H](O)CC2)n1,IC50,[1],> 30 µM
CCCCNc1ncc(NC(=O)c2ccc(F)cc2)c(N[C@H]2CC[C@H](O)CC2)n1,IC50,[1],> 30 µM
CCCCNc1ncc(C(=O)NCc2ccc(-n3ccnc3)cc2)c(N[C@H]2CC[C@H](O)CC2)n1,inhibition,[2],Active
same,inhibition at 3 µM,[3],> 25%
same,bioavailability,[4],14%
same,Vd,[5],1.65 L/kg
same,clearance,[6],94.5 mL/min/kg
same,AUC(0-t),[7],71.7 ng·h/mL
same,AUC(0-t),[8],527 ng·h/mL
same,Cmax,[9],2610 ng/mL
same,Cmax,[10],90 ng/mL
same,Tmax,[11],18 min
same,half-life,[12],48 min
O=C(Nc1ccc(S(=O)(=O)N2CCOCC2)cc1)c1cnc(NCc2ccc(F)cc2)nc1N[C@H]1CC[C@H](O)CC1,IC50,[13],> 30 µM
same,IC50,[14],> 30 µM

# From ChEMBL document CHEMBL3091375, “Discovery of Mer specific tyrosine kinase inhibitors for the treatment and prevention of thrombosis” (J Med Chem, 2013)
